From US20240383873A1, “PESTICIDALLY ACTIVE CYCLIC AMINE COMPOUNDS” (SYNGENTA CROP PROTECTION AG, priority 2021, published 2024)

Tested on: Tetranychus Urticae (Two-Spotted Spider Mite)
Assay: Tetranychus urticae (two-spotted spider mite): feeding/contact activity
Format: in vivo
Conditions: foliar, 192 h, application rate of 200 ppm, bean leaf discs sprayed, mixed population (mobile stages), 8 days after infestation
Method: Example B1: Tetranychus Urticae (Two-Spotted Spider Mite): Feeding/Contact Activity
Bean leaf discs on agar in 24-well microtiter plates were sprayed with aqueous test solutions prepared from 10'000 ppm DMSO stock solutions. After drying the leaf discs were infested with a mite population of mixed ages. The samples were assessed for mortality on mixed population (mobile stages) 8 days after infestation.

Compound | mortality at 200 ppm
CNS(=O)(=O)C1CCN(C(=O)c2cc(C#N)c(OCc3cc(C(F)(F)F)ccc3F)nc2C(F)(F)F)CC1 [Compound P1.1, 1-[5-cyano-6-[[2-fluoro-5-(trifluoromethyl)phenyl]methoxy]-2-(trifluoromethyl)pyridine-3-carbonyl]-N-methyl-piperidine-4-sulfonamide] | ≥ 80%
CN(C)C(=O)CN1CCN(C(=O)c2cc(C#N)c(OCc3cc(C(F)(F)F)ccc3F)nc2C(F)(F)F)CC1 [Compound P2.6, 2-[4-[5-Cyano-6-[[2-fluoro-5-(trifluoromethyl)phenyl]methoxy]-2-(trifluoromethyl)pyridine-3-carbonyl]piperazin-1-yl]-N,N-dimethyl-acetamide] | ≥ 80%
CN(C)S(=O)(=O)C1CCN(C(=O)c2cc(C#N)c(OCc3ccc4c(c3)OC(F)(F)O4)nc2C(F)(F)F)CC1 [Compound P1.24, 1-[5-Cyano-6-[(2,2-difluoro-1,3-benzodioxol-5-yl)methoxy]-2-(trifluoromethyl)pyridine-3-carbonyl]-N,N-dimethyl-piperidine-4-sulfonamide] | ≥ 80%
CN(C)C(=O)CC1CCN(C(=O)c2cc(C#N)c(OCc3cc(C(F)(F)F)ccc3F)nc2C(F)(F)F)CC1 [Compound P1.37, 2-[1-[5-Cyano-6-[[2-fluoro-5-(trifluoromethyl)phenyl]methoxy]-2-(trifluoromethyl)pyridine-3-carbonyl]-4-piperidyl]-N,N-dimethyl-acetamide] | ≥ 80%
